Experimental data reported in patent US8674109B2, “Pesticidal compositions” (Dow AgroSciences, LLC., priority 2009, dated 2014).

Key:
Assay type in all cases: in vivo
[1] = test system: beet armyworm (BAW; Spodoptera exigua: Lepidoptera); assay: Insecticidal test for beet armyworm, 128-well diet tray assay
Method in brief: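 Three to five second-instar larvae per well fed on artificial diet surface-treated with 50 μg/cm^2 compound (applied in 90:10 acetone-water, dried). Trays were held six days at 25 °C, 14:10 light-dark. Percent mortality was averaged across eight wells.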

[2] = test system: corn earworm (CEW; Helicoverpa zea: Lepidoptera); assay: Insecticidal test for corn earworm, 128-well diet tray assay
Method in brief: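 Second-instar larvae, three to five per well, placed on artificial diet treated with 50 μg/cm^2 compound applied in 90:10 acetone-water and dried. Held six days at 25° C., 14:10 light-dark. Percent mortality scored per well and averaged over eight wells.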

[3] = test system: green peach aphid (Myzus persicae); assay: Insecticidal test for green peach aphid in foliar spray assay on cabbage seedlings
Method in brief: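 Cabbage seedlings carrying 20-50 aphids (adults and nymphs) were sprayed to runoff with compound at 200 ppm in acetone/methanol diluted in 0.025% Tween 20, with four pots per treatment. After three days at about 25 °C and 40% RH, live aphids were counted. Percent control was Abbott-corrected against solvent-check plants.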

| Compound | % Mortality BAW 50 μg/cm^2 [1] | % Mortality CEW 50 μg/cm^2 [2] | % Mortality GPA 200 ppm [3] |
| --- | --- | --- | --- |
| CCC#CC(C)(C)OC(=O)Nc1ccc(-c2ncn(-c3ccc(OC(F)(F)F)cc3)n2)cc1 [Compound 96] | A (50-100) | A (50-100) | B (Less than 80) |
| COc1ccc(C(C)OC(=O)Nc2ccc(-c3ncn(-c4ccc(OC(F)(F)F)cc4)n3)cc2)cc1 (stereo not drawn) [Compound 97] | A (50-100) | A (50-100) | B (Less than 80) |
| CCOC(=O)Nc1ccc(-c2ncn(-c3ccc(OC(F)(F)F)cc3)n2)cc1 [Compound 98] | A (50-100) | A (50-100) | B (Less than 80) |
| CN(C)CC#CC(C)(C)OC(=O)Nc1ccc(-c2ncn(-c3ccc(OC(F)(F)F)cc3)n2)cc1 [Compound 99] | B (Less than 50) | B (Less than 50) | B (Less than 80) |
| COc1ccc(CC(C)(C)OC(=O)Nc2ccc(-c3ncn(-c4ccc(OC(F)(F)F)cc4)n3)cc2)cc1 [Compound 100] | B (Less than 50) | B (Less than 50) | B (Less than 80) |
| CCCCCC(CC)OC(=O)Nc1ccc(-c2ncn(-c3ccc(OC(F)(F)F)cc3)n2)cc1 (stereo not drawn) [Compound 101] | A (50-100) | A (50-100) | B (Less than 80) |
| CCCCCCC(C)OC(=O)Nc1ccc(-c2ncn(-c3ccc(OC(F)(F)F)cc3)n2)cc1 (stereo not drawn) [Compound 102] | B (Less than 50) | B (Less than 50) | B (Less than 80) |
| CC(OC(=O)Nc1ccc(-c2ncn(-c3ccc(OC(F)(F)F)cc3)n2)cc1)C(C)(C)C (stereo not drawn) [Compound 103] | A (50-100) | B (Less than 50) | B (Less than 80) |
| COC(=O)Nc1ccc(-c2ncn(-c3ccc(OC(F)(F)F)cc3)n2)cc1 [Compound 104] | A (50-100) | A (50-100) | B (Less than 80) |
| O=C(Nc1ccc(-c2ncn(-c3ccc(OC(F)(F)F)cc3)n2)cc1)OCc1ccccc1 [Compound 105] | A (50-100) | A (50-100) | B (Less than 80) |
| O=C(Nc1ccc(-c2ncn(-c3ccc(OC(F)(F)F)cc3)n2)cc1)OC1Cc2ccccc2C1 [Compound 106] | B (Less than 50) | A (50-100) | B (Less than 80) |
| CC(Cc1ccccc1)OC(=O)Nc1ccc(-c2ncn(-c3ccc(OC(F)(F)F)cc3)n2)cc1 (stereo not drawn) [Compound 107] | A (50-100) | A (50-100) | B (Less than 80) |
| CC1(OC(=O)Nc2ccc(-c3ncn(-c4ccc(OC(F)(F)F)cc4)n3)cc2)Cc2ccccc2C1 [Compound 108] | B (Less than 50) | B (Less than 50) | B (Less than 80) |
| O=C(Nc1ccc(-c2ncn(-c3ccc(OC(F)(F)F)cc3)n2)cc1)OC1CCc2ccccc21 (stereo not drawn) [Compound 109] | B (Less than 50) | A (50-100) | B (Less than 80) |
| CC(OC(=O)Nc1ccc(-c2ncn(-c3ccc(OC(F)(F)F)cc3)n2)cc1)c1cccnc1 (stereo not drawn) [Compound 110] | A (50-100) | A (50-100) | B (Less than 80) |
| O=C(Nc1ccc(-c2ncn(-c3ccc(OC(F)(F)F)cc3)n2)cc1)OCc1c(Cl)cccc1Cl [Compound 111] | B (Less than 50) | A (50-100) | B (Less than 80) |
| N#CC(OC(=O)Nc1ccc(-c2ncn(-c3ccc(OC(F)(F)F)cc3)n2)cc1)c1ccccc1 (stereo not drawn) [Compound 112] | A (50-100) | A (50-100) | B (Less than 80) |
| CCC(CC)OC(=O)Nc1ccc(-c2ncn(-c3ccc(OC(F)(F)F)cc3)n2)cc1 [Compound 113] | A (50-100) | A (50-100) | B (Less than 80) |
| CC(OC(=O)Nc1ccc(-c2ncn(-c3ccc(OC(F)(F)F)cc3)n2)cc1)c1c(F)c(F)c(F)c(F)c1F (stereo not drawn) [Compound 114] | A (50-100) | B (Less than 50) | B (Less than 80) |
| CC(OC(=O)Nc1ccc(-c2ncn(-c3ccc(OC(F)(F)F)cc3)n2)cc1)c1ccc(C(F)(F)F)cc1C(F)(F)F (stereo not drawn) [Compound 115] | B (Less than 50) | B (Less than 50) | B (Less than 80) |
| CC(OC(=O)Nc1ccc(-c2ncn(-c3ccc(OC(F)(F)F)cc3)n2)cc1)c1ccc(-c2ccccc2)cc1 (stereo not drawn) [Compound 116] | B (Less than 50) | A (50-100) | B (Less than 80) |
| CC(OC(=O)Nc1ccc(-c2ncn(-c3ccc(OC(F)(F)F)cc3)n2)cc1)c1ccc(F)cn1 (stereo not drawn) [Compound 117] | A (50-100) | A (50-100) | B (Less than 80) |
| CC(OC(=O)Nc1ccc(-c2ncn(-c3ccc(OC(F)(F)F)cc3)n2)cc1)c1ccc(Cl)cn1 (stereo not drawn) [Compound 118] | A (50-100) | A (50-100) | B (Less than 80) |
| COc1ccc(C(C)OC(=O)Nc2ccc(-c3ncn(-c4ccc(OC(F)(F)F)cc4)n3)cc2)nc1 (stereo not drawn) [Compound 119] | A (50-100) | A (50-100) | B (Less than 80) |
| CC(OC(=O)Nc1ccc(-c2ncn(-c3ccc(OC(F)(F)F)cc3)n2)cc1)c1cccc(Cl)n1 (stereo not drawn) [Compound 120] | A (50-100) | A (50-100) | B (Less than 80) |
| Cc1cc(C)c(CCOC(=O)Nc2ccc(-c3ncn(-c4ccc(OC(F)(F)F)cc4)n3)cc2)c(C)c1 [Compound 121] | B (Less than 50) | A (50-100) | B (Less than 80) |
| O=C(Nc1ccc(-c2ncn(-c3ccc(OC(F)(F)F)cc3)n2)cc1)Oc1ccccc1 [Compound 122] | A (50-100) | A (50-100) | B (Less than 80) |
| Cc1ccc(OC(=O)Nc2ccc(-c3ncn(-c4ccc(OC(F)(F)F)cc4)n3)cc2)cn1 [Compound 123] | B (Less than 50) | B (Less than 50) | B (Less than 80) |
| O=C(Nc1ccc(-c2ncn(-c3ccc(OC(F)(F)F)cc3)n2)cc1)Oc1ccccc1C(F)(F)F [Compound 124] | A (50-100) | A (50-100) | B (Less than 80) |
| Cc1cc(Cl)ccc1OC(=O)Nc1ccc(-c2ncn(-c3ccc(OC(F)(F)F)cc3)n2)cc1 [Compound 128] | A (50-100) | A (50-100) | B (Less than 80) |
